{"source": "patent US20070093410A1", "about": "“Selective inhibition of proteasomes of tuberculosis and other bacteria” (President and Fellows of Harvard College, priority 2004, published 2007)", "key": {"[1]": {"test_system": "SDS-activated 20S mammalian proteasomes", "experiment": "Inhibition of individual active sites of SDS-activated 20S mammalian proteasomes, fluorogenic substrates specific for each active site", "format": "biochemical, rabbit", "settings": "sites other than the one the inhibitor is specific for; FIG. 1C", "method": "(§1) FIGS. 1A-1D depict hydrolysis of bKKQ10KK (SEQ ID NO:5) by the trypsin-like active site of the eukaryotic proteasome. A) 80 μM bKKQ10KK (SEQ ID NO:5) was incubated with mammalian (rabbit) 20S proteasomes with or without PA28αβ, 0.02% SDS. B) 35 μM bKKQ10KK (SEQ ID NO:5) was incubated with yeast wild type and ‘open-gate’ (α3ΔN) proteasomes. C) Mammalian 20S proteasomes were treated with inhibitors specific to each active site. D) After inactivation, the proteasomes were further incubated with bKKQ10KK (SEQ ID NO:5).\n(§2) To identify which active site of the proteasome cleaved after bKKQ, inhibitors that selectively block the individual active sites were used. SDS-activated 20S mammalian proteasomes were treated with the irreversible inhibitors, 4-hydroxy-5-iodo-3-nitrophenylacetyl-Leu-Leu-vinyl sulfone (NLVS); (Bogyo et al., supra, incorporated herein by reference in its entirety for all purposes), which is specific for the chymotrypsin-like site; Acetyl-Tyr-Arg-Leu-Asn-vinyl sulfone (SEQ ID NO:20) (Ac-YRLN-VS), which reacts primarily with the trypsin-like site (Nazif et al. (2001) Proc. Natl. Acad. Sci. USA 98:2967, incorporated herein by reference in its entirety for all purposes); or with the reversible inhibitor of the caspase-like site, Z-Pro-norLeu-Asp-aldehyde (Z-PnLD-CHO) (Kisselev et al. (2003) supra, incorporated herein by reference in its entirety for all purposes). The extent of inhibition of the different sites was assayed using fluorogenic substrates specific for each active site. […] After inactivation of each type of active site, the proteasomes were incubated with bKKQ10KK. […] Thus, cleavage after bKKQ was due to the activity of the trypsin-like site, presumably because of the two-lysine residues preceding the initial Q residue."}, "[2]": {"test_system": "SDS-activated 20S mammalian proteasomes", "experiment": "bKKQ10KK cleavage by 20S mammalian proteasomes after inactivation of each type of active site", "format": "biochemical, rabbit", "settings": "proteasomes pre-treated with inhibitor, then incubated with bKKQ10KK; FIG. 1D", "method": "as §1, §2\nFor 20S proteasomes, 20 mM Hepes (pH 7.5) containing 1 mM dithiothreitol (DTT) was used. For reactions with 26S proteasomes, the buffer also contained 0.5 mM ATP and 2.5 mM MgCl2. All reactions were performed at 37° C. […] The reaction was terminated with 0.4 ml of ice-cold water and fluorescence read at 380 nm excitation and 470 nm emission. […]"}, "[3]": {"test_system": "bovine PA 28alpha-beta (Boston Biochem, Inc.)"}, "[4]": {"test_system": "T1, Acetyl-Tyr-Arg-Leu-Asn-vinyl sulfone (SEQ ID NO:20)", "T1 sequence": "YRLN"}, "bKKQ10KK (SEQ ID NO:8)": {"test_system": "T2, bKKQ10KK (SEQ ID NO:8)", "T2 sequence": "KKQQQQQQQQQQKK"}, "bKKQ20KK (SEQ ID NO:9)": {"test_system": "T3, bKKQ20KK (SEQ ID NO:9)", "T3 sequence": "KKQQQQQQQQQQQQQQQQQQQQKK"}, "[5]": {"target": "T4, archaebacterial 'open-gate' 20S proteasomes (Thermoplasma acidophilum, UniProt P28061)", "T4 sequence (P28061 9-211)": "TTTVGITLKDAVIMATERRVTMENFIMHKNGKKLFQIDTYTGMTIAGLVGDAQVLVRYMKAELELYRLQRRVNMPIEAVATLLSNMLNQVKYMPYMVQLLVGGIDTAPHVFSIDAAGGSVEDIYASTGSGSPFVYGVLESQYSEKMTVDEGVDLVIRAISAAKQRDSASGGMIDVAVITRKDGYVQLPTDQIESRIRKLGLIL", "experiment": "Hydrolysis of bKKQ20KK by archaebacterial 'open-gate' 20S proteasomes, effect of proteasome inhibitor", "format": "biochemical", "settings": "37° C.", "method": "(§3) FIGS. 4A-4B depict multiple cleavages within the polyQ sequence by archaebacterial proteasomes. A) bKKQ20KK (SEQ ID NO:9) (25 μM) was incubated with 0.6 μg of yeast or 250 ng of archaebacterial ‘open-gate’ 20S particles in a total volume of 50 μl. B) Products generated by the archaebacterial proteasomes were analyzed by MALDI-TOF.\n(§4) 20S proteasomes of archaebacteria, e.g., Thermoplasma acidophilum, contain 14 identical active sites, which, though originally classified as “chymotrypsin-like” (Dahlmann et al. (1991) Biomed. Biochim. Acta 50:465, incorporated herein by reference in its entirety for all purposes), were later shown to cleave also after basic and acidic residues (Akopian et al., supra). These “less-specific” active sites were tested to determine if they could degrade within a polyQ sequence. […] It was determined that mutant archaebacterial proteasomes lacking this gate (Δ7α) (Benaroudj et al., supra, incorporated herein by reference in its entirety for all purposes) cleaved polyQ peptides and control peptides at least 17 fold faster than the wild-type particles. […]\n(§5) For 20S proteasomes, 20 mM Hepes (pH 7.5) containing 1 mM dithiothreitol (DTT) was used. […] The reaction was terminated with 0.4 ml of ice-cold water and fluorescence read at 380 nm excitation and 470 nm emission."}, "eukaryotic proteasomes": {"test_system": "eukaryotic proteasomes", "experiment": "Competitive inhibition of hydrolysis of standard fluorogenic substrates by eukaryotic proteasomes", "format": "biochemical", "source_text": "In contrast to eukaryotic proteasomes, the ancestral particles from the archaebacterium T. acidophilum digested polyQ peptides very rapidly and degraded completely the myoglobin-polyQ fusion protein. Unlike the eukaryotic homologs, these prokaryotic proteasomes contain 14 identical active sites of broad specificity. […] The data presented herein indicate that the trypsin-like sites can cleave after a P1 glutamine if the preceding residue at P2 is a lysine and at P3 a αN-blocked lysine. […] Thus, their failure to degrade polyQ-sequences is due to the inability of their active sites to bind the polyQ repeat, not to the proteasome's unique catalytic mechanism, which is similar in eukaryotic and archaebacterial particles."}, "yeast 20S proteasomes": {"test_system": "yeast 20S proteasomes", "experiment": "Hydrolysis of bKKQ10KK by yeast wild type and 'open-gate' (α3ΔN) 20S proteasomes", "format": "biochemical", "settings": "35 μM bKKQ10KK; FIG. 1B", "method": "as §1\nTo test whether 20S proteasomes could cleave within a polyQ sequence, a peptide containing 10 Q-residues flanked at each end by two lysine residues to enhance solubility (bKKQ10KK) (SEQ ID NO:8) and biotin on the α amino group was initially used as a substrate. […] Similarly, a mutant form (α3ΔN) of the yeast proteasome with an N-terminal deletion in the α3 subunit, which causes ‘gate-opening’, hydrolyzed bKKQ10KK (SEQ ID NO:8), approximately ten-fold faster than the wild-type (FIG. 1B). Thus, entry of this peptide and its cleavage depends on the presence of an ‘open-gate’ in the α-ring. […]\nas §5"}, "[6]": {"target": "T4, archaebacterial 'open-gate' 20S proteasomes", "experiment": "Cleavage of polyQ peptides by archaebacterial 'open-gate' (Δ7α) 20S proteasomes", "format": "biochemical", "settings": "half the concentration of the yeast particles, 37° C.", "method": "as §3, §4, §5"}, "rabbit 26S proteasomes": {"test_system": "rabbit 26S proteasomes", "experiment": "Peptide cleavage by 26S proteasomes (new amino groups, fluorescamine assay)", "format": "biochemical", "settings": "35 μM peptide, FIG. 2", "method": "FIG. 2 graphically depicts rapid cleavage of the flanking RRGRR (SEQ ID NO:6) in Q20RRGRR (SEQ ID NO:7) by eukaryotic proteasomes. 35 μM of each of the following peptides bKKQ10KK (SEQ ID NO:8), bKKQ20KK (SEQ ID NO:9), N-extended-KK-Q20-KK (SEQ ID NO:10), Q20RRGRR (SEQ ID NO:7) and a control 20-mer peptide […] (SEQ ID NO:12), lacking any repeat sequence were incubated with 7.2 μg of rabbit 26S particles in a total volume of 40 μl. New amino groups formed were assayed.\nAlthough 26S proteasomes cleaved these polyQ peptides slowly and only after the initial Q residues, they cleaved a Q20 (SEQ ID NO: 30) sequence with RRGRR (SEQ ID NO:6) at its C-terminus 5 to 6-fold faster than other polyQ peptides (FIG. 2) studied and at similar rates to the 20-mer control peptide (though not as fast as YGGFLRRIRPKLK (SEQ ID NO:29), a 13-mer which is cleaved at least 2 times faster).\nFor 20S proteasomes, 20 mM Hepes (pH 7.5) containing 1 mM dithiothreitol (DTT) was used. For reactions with 26S proteasomes, the buffer also contained 0.5 mM ATP and 2.5 mM MgCl2. All reactions were performed at 37° C. 5 μl aliquots were withdrawn at different times, 50 μl of 0.2M sodium phosphate (pH 6.8) was added and then mixed vigorously with 50 μl fluorescamine for 3 minutes. The reaction was terminated with 0.4 ml of ice-cold water and fluorescence read at 380 nm excitation and 470 nm emission."}}, "note": "Non-standard residues stand in square brackets, D forms with d. Residues, ends and D or L forms follow the SMILES beside them. No end group written: not given here. *: point of attachment. Biotin = O=C1N[C@H]2[C@H](CS[C@H]2CCCCC(=O)*)N1; Nle = CCCC[C@H](N)C(=O)O; Cbz = O=C(OCc1ccccc1)*", "data": [{"molecule": "Acetyl-Tyr-Arg-Leu-Asn-vinyl sulfone (Ac-YRLN-{vinyl sulfone}) [Ac-YRLN-VS]", "values": [{"measurement": "effect on the other two peptidase activities", "setting": "[1]", "value": "without significantly affecting the other two"}, {"measurement": "reduction of bKKQ10KK cleavage", "setting": "[2]", "value": "about 70%"}]}, {"molecule": "rabbit 20S proteasomes", "values": [{"measurement": "hydrolysis of bKKQ10KK and of standard fluorogenic peptide substrates", "setting": "[3]", "value": "Rabbit 20S proteasomes, when purified in their latent state, were inactive against bKKQ10KK (SEQ ID NO:8) (FIG. 1A) or against standard fluorogenic peptide substrates, unless PA28αβ, or 0.02% SDS was added"}, {"measurement": "decrease in the individual peptidase activities (fluorogenic substrates specific for each active site)", "setting": "[4]", "value": "Each inhibitor caused an 85%-95% decrease in the individual peptidase activities without significantly affecting the other two"}, {"measurement": "reduction of bKKQ10KK cleavage", "setting": "[4]", "value": "Treatment with Ac-YRLN-VS (SEQ ID NO:20) reduced bKKQ10KK (SEQ ID NO:8) cleavage by about 70%"}]}, {"molecule": "archaebacterial 'open-gate' 20S proteasomes (delta7alpha) of Thermoplasma acidophilum", "values": [{"measurement": "rate of peptide cleavage against yeast 'open-gate' 20S proteasomes, 37° C.", "setting": "bKKQ10KK (SEQ ID NO:8)", "value": "cleaved both bKKQ10KK (SEQ ID NO:8) and bKKQ20KK (SEQ ID NO:9) at least 70 times faster than the yeast ‘open-gate’ 20S proteasomes"}, {"measurement": "rate of peptide cleavage against yeast 'open-gate' 20S proteasomes, 37° C.", "setting": "bKKQ20KK (SEQ ID NO:9)", "value": "cleaved both bKKQ10KK (SEQ ID NO:8) and bKKQ20KK (SEQ ID NO:9) at least 70 times faster than the yeast ‘open-gate’ 20S proteasomes"}]}, {"molecule": "CCCC[C@H](NC(=O)[C@@H]1CCCN1C(=O)OCc1ccccc1)C(=O)N[C@H](C=O)CC(=O)O", "note": "[Z-PnLD-CHO, Z-Pro-norLeu-Asp-aldehyde] (Cbz-Pro-[Nle]-Asp-aldehyde)", "values": [{"measurement": "effect on the other two peptidase activities", "setting": "[1]", "value": "without significantly affecting the other two"}, {"measurement": "reduction of bKKQ10KK cleavage", "setting": "[2]", "value": "no significant effect"}]}, {"molecule": "CC(C)C[C@@H](C=O)NC(=O)[C@H](CC(C)C)NC(=O)[C@H](CC(C)C)NC(=O)OCc1ccccc1", "note": "[MG132] (Cbz-Leu-Leu-Leu-aldehyde)", "values": [{"measurement": "inhibition of bKKQ20KK hydrolysis", "setting": "[5]", "value": "inhibited this process"}]}, {"molecule": "bKKQ10KK: peptide containing 10 Q-residues flanked at each end by two lysine residues, biotin on the α amino group (SEQ ID NO:8) (Biotin-KKQQQQQQQQQQKK)", "values": [{"measurement": "competitive inhibition of hydrolysis of standard fluorogenic substrates", "setting": "eukaryotic proteasomes", "value": "could not competitively inhibit"}, {"measurement": "hydrolysis rate by α3ΔN mutant relative to wild-type yeast proteasome", "setting": "yeast 20S proteasomes", "value": "approximately ten-fold"}]}, {"molecule": "bKKQ20KK: Q20 sequence flanked by two lysine residues on each end and biotin on the α amino group (SEQ ID NO:9) (Biotin-KKQQQQQQQQQQQQQQQQQQQQKK)", "values": [{"measurement": "time to complete consumption of the peptide", "setting": "[6]", "value": "≤ 45", "unit": "min"}]}, {"molecule": "Q20RRGRR: Q20 sequence with RRGRR at its C-terminus (SEQ ID NO:7) (QQQQQQQQQQQQQQQQQQQQRRGRR; Peptide generated by solid-phase peptide synthesis)", "values": [{"measurement": "cleavage rate relative to other polyQ peptides", "setting": "rabbit 26S proteasomes", "value": "5 to 6", "unit": "fold"}]}, {"molecule": "4-hydroxy-5-iodo-3-nitrophenylacetyl-Leu-Leu-vinyl sulfone [NLVS]", "values": [{"measurement": "effect on the other two peptidase activities", "setting": "[1]", "value": "without significantly affecting the other two"}, {"measurement": "reduction of bKKQ10KK cleavage", "setting": "[2]", "value": "no significant effect"}]}]}
